Assay results from patent US9278947B2, “Serotonin reuptake inhibitors as drugs having peripheral-system-restricted activity” (priority 2006, dated 2016).
Where two headings read alike, the source gives them in different places. Marks after values point to notes of the source that are not given here.

Experiments:
mice [1] = experiment: Collagen-epinephrine induced acute pulmonary thromboembolism in mice; type: in vivo; conditions: for death or paralysis after collagen-epinephrine injection versus control group: chronic treatment: aspirin 70 mg/kg, citalopram 10 mg/kg, NMC 10 mg/kg; for Number of mice who died: died or paralyzed after collagen-epinephrine into tail vein; for % death: died or paralyzed; for Mean % death ± S.E.M: mean of 3 experiments
Method: An experimental model of acute pulmonary thromboembolism was induced in mice by injecting a mixture of collagen (0.5 mg/kg) and epinephrine (0.5 mg/kg). […] The injection was followed by a massive activation of circulating platelets and the widespread formation of platelet thrombi in the microcirculation of the lungs leading to disseminated pulmonary microembolism and paralysis of the animal.

mice [2] = experiment: Tail bleeding time in chronically treated mice; type: in vivo; conditions: for Mean (n = 4) of mean bleeding time: mean over experiments (different doses)
Method: The anti-thrombotic effects of a drug can be evaluated in mice through a bleeding time experiment. Mice were treated by the tested drugs for two weeks, then anesthetized and placed on a warming pad before a segment of their tail was amputated. The tail was immersed in 0.9% isotonic saline at 37° C., and the time required for the stream of blood to stop was defined as the bleeding time. Different cuts and drug doses were tested. Control mice were administered either DDW (p.o) or saline (i.p). In some experiments (Nos. 5 and 6), half of the mice were administered DDW and half saline.

[3] = test system: [^3H]dopamine uptake into rat brain synaptosomes; experiment: [^3H]dopamine uptake by rat brain synaptosomes; type: biochemical; conditions: for inhibition of [^3H]dopamine uptake: at 45 nM
Method: (§1) [^3H]dopamine and [^3H]noradrenaline uptake assays were carried out in synaptosomes from rat brain cortex. After a 10 minutes pre-incubation period at 37° C., [^3H]dopamine or [^3H]noradrenaline were added to the tubes containing synaptosomes and tested drugs. The reactions were stopped after four minutes by rapid cooling on ice. Specific uptake was defined as the difference between total uptake at 37° C. (triplicate samples) and the uptake measured at 0° C. (duplicate samples). Three separate experiments were performed.

[4] = test system: [^3H]noradrenaline uptake into rat brain synaptosomes; experiment: [^3H]noradrenaline uptake by rat brain synaptosomes; type: biochemical; conditions: for inhibition of [^3H]noradrenaline uptake: at 8.5 nM
Method: as §1

[5] = reported in reference [1]; cited from earlier work
[6] = Experiment No. 1, 10 mg/kg for two weeks
[7] = Experiment No. 2, 10 mg/kg for two weeks
[8] = Experiment No. 3, 10 mg/kg for two weeks
[9] = 10 mg/kg for two weeks (control 72 ± 2)
[10] = 3 mm tail amputation, Experiment No. 3, CJ57/black, 2 mg/kg p.o., two weeks
[11] = 3 mm tail amputation, Experiment No. 5, ICR, 10 mg/kg i.p., two weeks
[12] = Experiment No. 1, 70 mg/kg for two weeks
[13] = Experiment No. 2, 70 mg/kg for two weeks
[14] = Experiment No. 3, 70 mg/kg for two weeks

SMILES	death or paralysis after collagen-epinephrine injection versus control group (mice [1])	Number of mice who died (mice [1]; [6])	Number of mice who died (mice [1]; [7])	Number of mice who died (mice [1]; [8])	% death (mice [1]; [6]) [%]	% death (mice [1]; [7]) [%]	% death (mice [1]; [8]) [%]	Mean % death ± S.E.M (mice [1]; [9])	Mean bleeding time (mice [2]; [10]) [s]	Mean bleeding time (mice [2]; [11]) [s]	Mean (n = 4) of mean bleeding time (mice [2]; 3 mm tail amputation) [s]	inhibition of [^3H]dopamine uptake [3]	inhibition of [^3H]noradrenaline uptake [4]	reduction of MI risk [5] [%]	other results
CN(C)CCCC1(c2ccc(F)cc2)OCc2cc(C#N)ccc21 (stereo not shown) [Citalopram, 1-(3-Dimethylamino-propyl)-1-(4-fluoro-phenyl)-1,3-dihydro-isobenzofuran-5-carbonitrile]	did not cause a significant improvement	7/9	8/13	7/10	78	61	70	70 ± 5%	179	66	171	did not inhibit	did not have any effect		Mice behavior following injections, day 1 (ICR mice; 30 mg/day i.p., ICR mice, observed 1 hour): normal; Mice behavior following injections, day 3 (ICR mice; 100 mg/day i.p., ICR mice, observed 1 hour): looks weak
COC(=O)[C@H](c1ccccc1Cl)N1CCc2sccc2C1 [clopidogrel]														10	
C[N+](C)(C)CCCC1(c2ccc(F)cc2)OCc2cc(C#N)ccc21 (stereo not shown) [NMC, N-methyl-citalopram]	significant decrease in death or paralysis	6/8	4/13	6/14	75	31	43	50^b ± 10%	150	124	191	less than 10%	less than 20%		dose at which not lethal to mice (ICR mice; i.p., mice): less than 50 mg/kg; Mice behavior following injections, day 1 (ICR mice; mouse, in vivo, ip): normal; Mice behavior following injections, day 2 (ICR mice; mouse, in vivo, ip): normal; Mice behavior following injections, day 3 (ICR mice; mouse, in vivo, ip): normal; doses that can be toxic (ICR mice; mouse, in vivo, ip): above 50 mg/kg
CC(=O)Oc1ccccc1C(=O)O [Aspirin]	significantly less prone to die or to be paralyzed										288			20	Number of mice who died (mice [1]; [12]): 5/10; Number of mice who died (mice [1]; [13]): 5/12; Number of mice who died (mice [1]; [14]): 3/11; % death (mice [1]; [12]): 50%; % death (mice [1]; [13]): 42%; % death (mice [1]; [14]): 27%; Mean % death ± S.E.M (mice [1]; 70 mg/kg for two weeks (control 72 ± 2)): 40^a ± 7^ %; Mean bleeding time (mice [2]; 3 mm tail amputation, Experiment No. 2, CJ57/black, 40 mg/kg p.o., two weeks): 389 s; Mean bleeding time (mice [2]; 3 mm tail amputation, Experiment No. 3, CJ57/black, 40 mg/kg p.o., two weeks): 230 s; Mean bleeding time (mice [2]; 3 mm tail amputation, Experiment No. 4, CJ57/black, 70 mg/kg p.o., two weeks): 394 s; Mean bleeding time (mice [2]; 3 mm tail amputation, Experiment No. 5, ICR, 70 mg/kg p.o., two weeks): 145 s; Mean bleeding time (mice [2]; 4 mm tail amputation, Experiment No. 6, ICR, 40 mg/kg p.o.): 221 s; Mean bleeding time (mice [2]; amputation where tail diameter is 2 mm, Experiment No. 1, CJ57/black, 40 mg/kg p.o.): 233 s
OC1(c2ccc(Cl)cc2)c2ccccc2C2=NCCN21 (stereo not shown) [mazindol]															IC50 ([3]; rat brain synaptosomes, read-out: concentration inhibiting [^3H]dopamine uptake by 50%): 45 nM; IC50 ([4]; rat brain synaptosomes, read-out: concentration inhibiting [^3H]noradrenaline uptake by 50%): 8.5 nM
